Results from article PMC10290117, “Molecular mechanism of phosphopeptide neoantigen immunogenicity” (Nature Communications, 2023).

Test system: TCR27-AKD10R3 cells
Experiment: X-scan (peptide scan), EGFP reporter effector cells
Type: cell-based, murine
Details: Fig. 1c source data, HLA B*07, T2 cells pulsed with 25 μg peptide per 1 × 10^6 cells, 2 h, 37 °C, effector cells 2:1 overnight, mean value of triplicate
Procedure: Tap-deficient T2 (174x CEM.T2) HLA-B*0702+ cells were received from Dr. Victor Engelhard. These and the commercially purchased Tap-deficient T2 (174 x CEM.T2) cells (ATCC CRL 1991) were maintained in RPMI 1640 (BioConcept) supplemented with 10% fetal calf serum (FCS, HyClone), 2mM L-glutamine and 1% Penicillin/Streptomycin at 37 °C and 5% CO2. The EGFP reporter cell line was based on a murine TCR negative thymoma cell line derived from strain BW5417 (ATCC®TIB-47TM) and was stably transduced with (a) TCR27 in which the human constant regions were replaced with those of mouse, (b) a chimeric mouse/human CD8, and (c) an EGFP reporter construct linked to a minimal IL-2 promoter comprising three NFAT-binding sites (3xNFAT)[44]. The transduced cells were termed TCR27-AKD10R3 cells and will be called the effector cells. Mouse cell lines were cultured in SF-IMDM (BioConcept) supplemented with 3% FCS, 1% Penicillin/Streptomycin, and 50 μM beta-mercaptoethanol at 37 °C and 10% CO2.
Peptides were dissolved in dimethyl sulfoxide (DMSO) at concentrations of 2–20 mg/mL, aliquoted and stored at −80 °C. Peptide-pulsing experiments were performed by pre-incubating T2 cells with 25 μg peptide per 1 × 10^6 cells in PBS for 2 h at 37 °C and 5% CO2, washed three times to remove unbound peptides and used for further downstream analysis. Peptide-pulsed T2 cells were incubated with effector cells in a 2:1 ratio overnight in SF-IMDM at 37 °C and 10% CO2, washed twice and stained with anti-mouse TCR-® chain clone H57-597 (BD Pharmingen #560656, 1:500) for 30 min at RT. Cells were washed twice before FACS-analysis using a BD FACS Canto II with System software v2.0. Data analysis was performed using FlowJo V10 Software. Binding affinity between each peptide and HLA-B*0702 was determined using an Alpha assay. It is a homogenous, proximity-based assay for detection of peptides binding to HLA class I molecules using a conformation-dependent anti-HLA class I antibody, W6/32, as one tag and a biotinylated recombinant HLA class I molecule as the other tag, and a proximity-based signal was generated through the luminescent oxygen channeling immunoassay technology (PerkinElmer) as described.
To identify the off-target peptides we have utilized an approach that was developed previously. In brief, we investigated which amino acids at each position in pMLL747–755 enable TCR interaction by sequentially replacing every amino acid position outside of the anchor positions 2 and 9 with all 19 alternative amino acids, resulting in 134 peptides (133 altered peptides plus original epitope). Each peptide was individually evaluated using cell-based in vitro cytotoxicity assay. To represent the TCR recognition kernel, we have defined Position Weight Matrices (PWMs) for each assay by assigning normalized measurements to each of the 20 amino acids in each position. To predict potential off-target peptides, we applied an algorithm projecting the PWM-defined kernel into the human proteome, scoring TCR27 recognition for the predicted HLA-B^*0702 binding 9-mer peptides. Of the 11 peptides with highest predicted cross-reactivity scores, we confirmed that only 2, […] and pDOT1L998–1006, strongly activated the TCR27-expressing effector T cells.

How did the “Percentage GFP positive from TCR+ cells” value turn out when “APRsPSHSM [single-residue substitution of pMLL747–755, Pos 1]” was run?
The value was 1.5%.

With “CPRsPSHSM [single-residue substitution of pMLL747–755, Pos 1]” as the substance, how does the “Percentage GFP positive from TCR+ cells” value read?
The value was 1.3%.

“DPRsPSHSM [single-residue substitution of pMLL747–755, Pos 1]” was tested. Which “Percentage GFP positive from TCR+ cells” value did it give?
Its value is 1.14%.

Which “Percentage GFP positive from TCR+ cells” value does the source give for “EPAsPSHSM [single-residue substitution of pMLL747–755, Pos 3]” here?
The value was 14.3%.

“EPCsPSHSM [single-residue substitution of pMLL747–755, Pos 3]” was tested. Which “Percentage GFP positive from TCR+ cells” value did it give?
Its value is 9.53%.

“EPDsPSHSM [single-residue substitution of pMLL747–755, Pos 3]” was tested. Which “Percentage GFP positive from TCR+ cells” value did it give?
The value was 1.12%.

For “EPEsPSHSM [single-residue substitution of pMLL747–755, Pos 3]”, which “Percentage GFP positive from TCR+ cells” value is on record?
Its value is 2.7%.

For “EPFsPSHSM [single-residue substitution of pMLL747–755, Pos 3]”, which “Percentage GFP positive from TCR+ cells” value is on record?
The value was 1.13%.

Which “Percentage GFP positive from TCR+ cells” value does the source give for “EPGsPSHSM [single-residue substitution of pMLL747–755, Pos 3]” here?
Its value is 1.47%.

How did the “Percentage GFP positive from TCR+ cells” value turn out when “EPHsPSHSM [single-residue substitution of pMLL747–755, Pos 3]” was run?
The value was 5.91%.

With “EPIsPSHSM [single-residue substitution of pMLL747–755, Pos 3]” as the substance, how does the “Percentage GFP positive from TCR+ cells” value read?
The value was 1.83%.

With “EPKsPSHSM [single-residue substitution of pMLL747–755, Pos 3]” as the substance, how does the “Percentage GFP positive from TCR+ cells” value read?
Its value is 10.3%.

With “EPLsPSHSM [single-residue substitution of pMLL747–755, Pos 3]” as the substance, how does the “Percentage GFP positive from TCR+ cells” value read?
Its value is 1.35%.

“EPMsPSHSM [single-residue substitution of pMLL747–755, Pos 3]” was tested. Which “Percentage GFP positive from TCR+ cells” value did it give?
The value was 1.48%.

How did the “Percentage GFP positive from TCR+ cells” value turn out when “EPNsPSHSM [single-residue substitution of pMLL747–755, Pos 3]” was run?
The value was 5%.

“EPPsPSHSM [single-residue substitution of pMLL747–755, Pos 3]” was tested. Which “Percentage GFP positive from TCR+ cells” value did it give?
The value was 1%.

“EPQsPSHSM [single-residue substitution of pMLL747–755, Pos 3]” was tested. Which “Percentage GFP positive from TCR+ cells” value did it give?
The value was 1.31%.

For “EPRAPSHSM [single-residue substitution of pMLL747–755, Pos 4]”, which “Percentage GFP positive from TCR+ cells” value is on record?
Its value is 0.88%.

For “EPRCPSHSM [pMLL747–755 with cysteine at Pos 4]”, which “Percentage GFP positive from TCR+ cells” value is on record?
Its value is 1.02%.

For “EPRDPSHSM [pMLL747–755 with aspartate at P4]”, which “Percentage GFP positive from TCR+ cells” value is on record?
Its value is 0.92%.

With “EPREPSHSM [pMLL747–755 with glutamate at P4]” as the substance, how does the “Percentage GFP positive from TCR+ cells” value read?
Its value is 0.77%.

Which “Percentage GFP positive from TCR+ cells” value does the source give for “EPRFPSHSM [single-residue substitution of pMLL747–755, Pos 4]” here?
The value was 0.91%.

With “EPRGPSHSM [single-residue substitution of pMLL747–755, Pos 4]” as the substance, how does the “Percentage GFP positive from TCR+ cells” value read?
The value was 1.01%.

For “EPRHPSHSM [single-residue substitution of pMLL747–755, Pos 4]”, which “Percentage GFP positive from TCR+ cells” value is on record?
Its value is 0.9%.

With “EPRIPSHSM [single-residue substitution of pMLL747–755, Pos 4]” as the substance, how does the “Percentage GFP positive from TCR+ cells” value read?
The value was 0.86%.

“EPRKPSHSM [single-residue substitution of pMLL747–755, Pos 4]” was tested. Which “Percentage GFP positive from TCR+ cells” value did it give?
The value was 1.03%.

Which “Percentage GFP positive from TCR+ cells” value does the source give for “EPRLPSHSM [single-residue substitution of pMLL747–755, Pos 4]” here?
The value was 1.21%.

For “EPRMPSHSM [single-residue substitution of pMLL747–755, Pos 4]”, which “Percentage GFP positive from TCR+ cells” value is on record?
Its value is 1.25%.

With “EPRNPSHSM [single-residue substitution of pMLL747–755, Pos 4]” as the substance, how does the “Percentage GFP positive from TCR+ cells” value read?
Its value is 1.07%.

With “EPRPPSHSM [single-residue substitution of pMLL747–755, Pos 4]” as the substance, how does the “Percentage GFP positive from TCR+ cells” value read?
Its value is 1.21%.

“EPRQPSHSM [single-residue substitution of pMLL747–755, Pos 4]” was tested. Which “Percentage GFP positive from TCR+ cells” value did it give?
The value was 1.08%.

How did the “Percentage GFP positive from TCR+ cells” value turn out when “EPRRPSHSM [single-residue substitution of pMLL747–755, Pos 4]” was run?
The value was 0.98%.

How did the “Percentage GFP positive from TCR+ cells” value turn out when “EPRTPSHSM [single-residue substitution of pMLL747–755, Pos 4]” was run?
Its value is 0.8%.

“EPRVPSHSM [single-residue substitution of pMLL747–755, Pos 4]” was tested. Which “Percentage GFP positive from TCR+ cells” value did it give?
The value was 0.76%.

For “EPRWPSHSM [single-residue substitution of pMLL747–755, Pos 4]”, which “Percentage GFP positive from TCR+ cells” value is on record?
Its value is 0.96%.

With “EPRYPSHSM [single-residue substitution of pMLL747–755, Pos 4]” as the substance, how does the “Percentage GFP positive from TCR+ cells” value read?
Its value is 0.87%.

With “EPRsASHSM [single-residue substitution of pMLL747–755, Pos 5]” as the substance, how does the “Percentage GFP positive from TCR+ cells” value read?
Its value is 0.92%.

For “EPRsCSHSM [single-residue substitution of pMLL747–755, Pos 5]”, which “Percentage GFP positive from TCR+ cells” value is on record?
Its value is 0.98%.

Which “Percentage GFP positive from TCR+ cells” value does the source give for “EPRsDSHSM [single-residue substitution of pMLL747–755, Pos 5]” here?
Its value is 0.95%.

“EPRsESHSM [single-residue substitution of pMLL747–755, Pos 5]” was tested. Which “Percentage GFP positive from TCR+ cells” value did it give?
Its value is 0.97%.

How did the “Percentage GFP positive from TCR+ cells” value turn out when “EPRsFSHSM [single-residue substitution of pMLL747–755, Pos 5]” was run?
Its value is 0.91%.

“EPRsGSHSM [single-residue substitution of pMLL747–755, Pos 5]” was tested. Which “Percentage GFP positive from TCR+ cells” value did it give?
The value was 0.96%.

How did the “Percentage GFP positive from TCR+ cells” value turn out when “EPRsHSHSM [single-residue substitution of pMLL747–755, Pos 5]” was run?
The value was 0.93%.

With “EPRsISHSM [single-residue substitution of pMLL747–755, Pos 5]” as the substance, how does the “Percentage GFP positive from TCR+ cells” value read?
The value was 0.81%.

Which “Percentage GFP positive from TCR+ cells” value does the source give for “EPRsKSHSM [single-residue substitution of pMLL747–755, Pos 5]” here?
The value was 0.9%.

“EPRsLSHSM [single-residue substitution of pMLL747–755, Pos 5]” was tested. Which “Percentage GFP positive from TCR+ cells” value did it give?
The value was 0.88%.

Which “Percentage GFP positive from TCR+ cells” value does the source give for “EPRsMSHSM [single-residue substitution of pMLL747–755, Pos 5]” here?
The value was 0.97%.

For “EPRsNSHSM [single-residue substitution of pMLL747–755, Pos 5]”, which “Percentage GFP positive from TCR+ cells” value is on record?
The value was 0.84%.

For “EPRsPAHSM [single-residue substitution of pMLL747–755, Pos 6]”, which “Percentage GFP positive from TCR+ cells” value is on record?
The value was 1.34%.

How did the “Percentage GFP positive from TCR+ cells” value turn out when “EPRsPCHSM [single-residue substitution of pMLL747–755, Pos 6]” was run?
The value was 8.54%.

How did the “Percentage GFP positive from TCR+ cells” value turn out when “EPRsPDHSM [single-residue substitution of pMLL747–755, Pos 6]” was run?
The value was 1.07%.

Which “Percentage GFP positive from TCR+ cells” value does the source give for “EPRsPEHSM [single-residue substitution of pMLL747–755, Pos 6]” here?
Its value is 4.34%.

With “EPRsPFHSM [single-residue substitution of pMLL747–755, Pos 6]” as the substance, how does the “Percentage GFP positive from TCR+ cells” value read?
Its value is 0.82%.

“EPRsPGHSM [single-residue substitution of pMLL747–755, Pos 6]” was tested. Which “Percentage GFP positive from TCR+ cells” value did it give?
Its value is 1.34%.

Which “Percentage GFP positive from TCR+ cells” value does the source give for “EPRsPHHSM [single-residue substitution of pMLL747–755, Pos 6]” here?
Its value is 2.09%.

With “EPRsPIHSM [single-residue substitution of pMLL747–755, Pos 6]” as the substance, how does the “Percentage GFP positive from TCR+ cells” value read?
Its value is 0.85%.

For “EPRsPKHSM [single-residue substitution of pMLL747–755, Pos 6]”, which “Percentage GFP positive from TCR+ cells” value is on record?
The value was 0.87%.

How did the “Percentage GFP positive from TCR+ cells” value turn out when “EPRsPLHSM [single-residue substitution of pMLL747–755, Pos 6]” was run?
The value was 0.96%.

“EPRsPMHSM [single-residue substitution of pMLL747–755, Pos 6]” was tested. Which “Percentage GFP positive from TCR+ cells” value did it give?
Its value is 0.73%.

How did the “Percentage GFP positive from TCR+ cells” value turn out when “EPRsPNHSM [single-residue substitution of pMLL747–755, Pos 6]” was run?
Its value is 12.1%.
